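Interpolation was linear, between the two tested concentrations surrounding the appropriate level; five concentrations were tested over 48 hours in 96-well plates. At the TGI there is no net growth.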
Assays:
Assay in all cases: NCI-60 cell line screen, 48 h
SK-MEL-2 melanoma = system: SK-MEL-2 melanoma
SNB-75 CNS = system: SNB-75 CNS
TK-10 renal = system: TK-10 renal
T-47D breast = system: T-47D breast
CAKI-1 renal = system: CAKI-1 renal
ACHN renal = system: ACHN renal
PC-3 prostate = system: PC-3 prostate
EKVX NSCLC = system: EKVX NSCLC
HT29 colon = system: HT29 colon
A549 NSCLC = system: A549 NSCLC
BT-549 breast = system: BT-549 breast
KM12 colon = system: KM12 colon
SK-MEL-28 melanoma = system: SK-MEL-28 melanoma
UACC-257 melanoma = system: UACC-257 melanoma
UACC-62 melanoma = system: UACC-62 melanoma
SR leukemia = system: SR leukemia

SMILES | TGI (SK-MEL-2 melanoma) | TGI (SNB-75 CNS) | TGI (TK-10 renal) | TGI (T-47D breast) | TGI (CAKI-1 renal) | TGI (ACHN renal) | TGI (PC-3 prostate) | TGI (EKVX NSCLC) | TGI (HT29 colon) | TGI (A549 NSCLC) | TGI (BT-549 breast) | TGI (KM12 colon) | TGI (SK-MEL-28 melanoma) | TGI (UACC-257 melanoma) | TGI (UACC-62 melanoma) | TGI (SR leukemia)
Cc1ccc(C)c(NC(=O)/C(=N\N)C(c2cnc3ccc([N+](=O)[O-])cc3n2)[N+](=O)[O-])c1 (stereo unspecified) | > 100 µM | > 100 µM | > 100 µM | > 100 µM | > 100 µM | 40.1 µM | > 100 µM | > 100 µM | > 100 µM | > 100 µM | > 100 µM | > 100 µM | > 100 µM | > 100 µM | > 100 µM | > 100 µM
O=C1C=Cc2c1csc2Br | > 100 µM | > 100 µM | > 100 µM | > 100 µM | > 100 µM | 86.5 µM | > 100 µM | > 100 µM | > 100 µM | > 100 µM | > 100 µM | > 100 µM | > 100 µM | > 100 µM | > 100 µM | 22.7 µM
CC(C)(C)OC(=O)N(CCCCNC(=O)c1ccccc1)CCCNC(=O)c1ccccc1 | > 100 µM | > 100 µM | > 100 µM | > 100 µM | > 100 µM | > 100 µM | > 100 µM | > 100 µM | > 100 µM | > 100 µM | > 100 µM | > 100 µM | > 100 µM | > 100 µM | > 100 µM | > 100 µM
Cc1cc(O)c2c(c1)C(=O)C=C(Br)C2=O | 31.2 µM | 31 µM | 30.1 µM | 14.9 µM | 27.7 µM | 29.3 µM | 31.8 µM | > 61.2 µM | 40.3 µM | > 60.5 µM | 30.6 µM | > 55.8 µM | 29.7 µM | 26.5 µM | 32.4 µM | 42 µM
O=C(O)c1cccc(S(=O)(=O)NN2C(=O)CSC2c2ccccc2Cl)c1 (stereo unspecified) | > 100 µM | > 100 µM | > 100 µM | > 100 µM | > 100 µM | > 100 µM | > 100 µM | > 100 µM | > 100 µM | > 100 µM | > 100 µM | > 100 µM | > 100 µM | > 100 µM | > 100 µM | > 100 µM
CC(=O)O[C@@H]1[C@@H](C)[C@]2(CC(c3ccoc3)OC2O)C2CCC3O[C@]3(C)[C@]2(C)[C@@H]1OC(C)=O (stereo partly specified) | > 100 µM | > 100 µM | > 100 µM | 86.8 µM | > 100 µM | > 100 µM | > 100 µM | > 100 µM | > 100 µM | > 100 µM | 63.1 µM | 86.8 µM | 81.4 µM | > 100 µM | > 100 µM | 58 µM
CC(=O)OCC1=C2C(OC(=O)C(C)C)CC3(COC(C)=O)OC3/C=C\C3(C)OC3C2OC1=O (stereo unspecified) | > 100 µM | > 100 µM | > 100 µM | > 100 µM | > 100 µM | > 100 µM | > 100 µM | > 100 µM | > 100 µM | > 100 µM | > 100 µM | > 100 µM | > 100 µM | > 100 µM | > 100 µM | > 100 µM
COc1ccc(/C=N/NS(=O)(=O)c2ccc(/C=C3\NC(=O)N(C)C3=O)cc2)cc1 | > 100 µM | > 100 µM | > 100 µM | > 100 µM | > 100 µM | > 100 µM | > 100 µM | > 100 µM | > 100 µM | > 100 µM | > 100 µM | > 100 µM | > 100 µM | > 100 µM | > 100 µM | > 100 µM
Nc1cccc(/C=C/CN2CCN(CCOC(c3ccccc3)c3ccccc3)CC2)c1 | 33.6 µM | 22.7 µM | 29.6 µM | 26 µM | 34.1 µM | 32.2 µM | 30 µM | 32 µM | 13.1 µM | 29.7 µM | 29.9 µM | 25.4 µM | 27.1 µM | 31.1 µM | 31.7 µM | 17.4 µM
O=C1CC(NCCCNC2CC(=O)c3c(Br)sc(Br)c32)c2c(Br)sc(Br)c21 (stereo unspecified) | 5.01 µM | 7.68 µM | 4.61 µM | 5.28 µM | 3.77 µM | 3.55 µM | 3.9 µM | 4.8 µM | 4.96 µM | > 100 µM | 4.23 µM | 3.5 µM | > 24.3 µM | > 35.8 µM | 3.86 µM | > 100 µM
CC(=O)c1c2c(cc3c1CC1(C3)Cc3ccc4c(c3C1=O)CCC4)CCC2 (stereo unspecified) | > 100 µM | > 100 µM | > 100 µM | > 100 µM | > 100 µM | > 100 µM | > 100 µM | 96 µM | > 100 µM | > 100 µM | > 100 µM | > 100 µM | > 100 µM | 14.9 µM | > 100 µM | 64 µM
COC(=O)C(=O)c1cc2ccccc2n1S(=O)(=O)c1ccccc1 | > 100 µM | > 100 µM | > 100 µM | > 100 µM | > 100 µM | > 100 µM | > 100 µM | > 100 µM | > 100 µM | > 100 µM | > 100 µM | > 100 µM | > 100 µM | > 100 µM | > 100 µM | > 100 µM
CSc1ncc2c(C#N)c3ccccn3c(=O)c2n1 | > 100 µM | > 100 µM | > 100 µM | > 100 µM | > 100 µM | > 100 µM | > 100 µM | > 100 µM | > 100 µM | > 100 µM | > 100 µM | > 100 µM | > 100 µM | > 100 µM | > 100 µM | > 100 µM
Cn1c2c(c3ccccc31)CC(=O)N1CCCC(C1)CC21OCCO1 (stereo unspecified) | > 100 µM | > 100 µM | > 100 µM | > 100 µM | > 100 µM | > 100 µM | > 100 µM | > 100 µM | > 100 µM | > 100 µM | > 100 µM | > 100 µM | > 100 µM | > 100 µM | > 100 µM | > 100 µM
CCCC(=O)n1[nH]c(=O)n(C(C)(C)C)c1=O | > 100 µM | > 100 µM | > 100 µM | > 100 µM | > 100 µM | > 100 µM | > 100 µM | > 100 µM | > 100 µM | > 100 µM | > 100 µM | > 100 µM | > 100 µM | > 100 µM | > 100 µM | > 100 µM
c1ccc(CNCCCNCCCCNCCCNCc2ccccc2)cc1 | 31.4 µM | 21.7 µM | 18 µM | 39.8 µM | 23 µM | 21.4 µM | 11.2 µM | 23.1 µM | 5.86 µM | 45.5 µM | 33.3 µM | 21 µM | 26.7 µM | 31.1 µM | 21.1 µM | 25.6 µM
